# According to ChEMBL document CHEMBL1201862, “PubChem BioAssay data set” (2004):
#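 Following 48 hours of exposure in 96-well plates, responses at five concentrations were used to interpolate endpoints linearly. GI50 is the concentration that inhibits growth by half.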 Activity calls are given as the source filed them. No stated cut-off is given here; in the data, active = GI50 up to about 1.1 µM and inactive = higher.
# Legend:
# Test in all cases: DTP human tumour cell line panel, 48 h
# ACHN = tested on: ACHN
# CCRF-CEM = tested on: CCRF-CEM
# COLO 205 = tested on: COLO 205
# DU-145 = tested on: DU-145
# HOP-92 = tested on: HOP-92
# K562 = tested on: K562
# LOX IMVI = tested on: LOX IMVI
# M14 = tested on: M14
# MDA-MB-231 = tested on: MDA-MB-231
# MDA-MB-435 = tested on: MDA-MB-435
# NCI-H460 = tested on: NCI-H460
# NCI-H522 = tested on: NCI-H522
# PC-3 = tested on: PC-3
# SK-MEL-2 = tested on: SK-MEL-2
# SK-MEL-5 = tested on: SK-MEL-5
# SN12C = tested on: SN12C
# SNB-19 = tested on: SNB-19
# SNB-75 = tested on: SNB-75
# SR = tested on: SR
# U-251 = tested on: U-251
Structure (SMILES),GI50 (ACHN),GI50 (CCRF-CEM),GI50 (COLO 205),GI50 (DU-145),GI50 (HOP-92),GI50 (K562),GI50 (LOX IMVI),GI50 (M14),GI50 (MDA-MB-231),GI50 (MDA-MB-435),GI50 (NCI-H460),GI50 (NCI-H522),GI50 (PC-3),GI50 (SK-MEL-2),GI50 (SK-MEL-5),GI50 (SN12C),GI50 (SNB-19),GI50 (SNB-75),GI50 (SR),GI50 (U-251)
C(=C\c1ccccc1)/COc1ccccc1C(N1CCOCC1)n1nc2ccccc2n1 (stereo not given),7.98 µM (inactive),1.88 µM (inactive),19.9 µM (inactive),5.85 µM (inactive),5.15 µM (inactive),1.19 µM (inactive),2.9 µM (inactive),2.58 µM (inactive),4.73 µM (inactive),0.365 µM (active),15.4 µM (inactive),22 µM (inactive),2.59 µM (inactive),7.23 µM (inactive),3.33 µM (inactive),5.6 µM (inactive),19.2 µM (inactive),4.8 µM (inactive),1.07 µM (active),3.08 µM (inactive)
COc1c(Cl)c(=O)oc2ccc(Cl)cc12,> 100 µM (inactive),> 100 µM (inactive),> 100 µM (inactive),> 100 µM (inactive),25.2 µM (inactive),> 100 µM (inactive),> 100 µM (inactive),> 100 µM (inactive),> 100 µM (inactive),> 100 µM (inactive),> 100 µM (inactive),> 100 µM (inactive),> 100 µM (inactive),> 100 µM (inactive),> 100 µM (inactive),> 100 µM (inactive),> 100 µM (inactive),39.9 µM (inactive),> 100 µM (inactive),60.7 µM (inactive)
NC1C/C(=N\O)c2c(I)sc(I)c21 (stereo not given),18.7 µM (inactive),2.44 µM (inactive),19.6 µM (inactive),17.4 µM (inactive),17.1 µM (inactive),8.04 µM (inactive),1.77 µM (inactive),14.5 µM (inactive),21.3 µM (inactive),13.8 µM (inactive),21.3 µM (inactive),1.61 µM (inactive),17.1 µM (inactive),17.5 µM (inactive),14.8 µM (inactive),20.7 µM (inactive),17.2 µM (inactive),18.9 µM (inactive),4.8 µM (inactive),18.3 µM (inactive)
